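All cell lines were grown in 96-well plates and treated with compound for 48 hours. The concentration for 50% growth inhibition is given as GI50.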 Activity calls are given as the source filed them. Cut-off read from the data, not from the text of the source: active = GI50 up to about 1.1 µM and inactive = higher.
Assays:
Test in all cases: NCI-60 cell line screen, 48 h
[1] = test system: NCI/ADR-RES
[2] = test system: SNB-19
[3] = test system: COLO 205
[4] = test system: M14
[5] = test system: SN12C
[6] = test system: OVCAR-3
[7] = test system: UACC-257
[8] = test system: PC-3
[9] = test system: OVCAR-5
[10] = test system: IGROV-1
[11] = test system: HCT-116
[12] = test system: MDA-MB-435
[13] = test system: T47D
[14] = test system: SK-MEL-5
[15] = test system: ACHN
[16] = test system: UACC-62
[17] = test system: SK-OV-3
[18] = test system: DU-145
[19] = test system: MDA-MB-231
[20] = test system: A498
[21] = test system: NCI-H23
[22] = test system: CAKI-1
[23] = test system: Hs-578T
[24] = test system: MOLT-4
[25] = test system: U-251
[26] = test system: KM12
[27] = test system: HOP-92
[28] = test system: HOP-62
[29] = test system: RPMI-8226
[30] = test system: SR
[31] = test system: NCI-H226
[32] = test system: BT-549
[33] = test system: HL-60
[34] = test system: SNB-75
[35] = test system: 786-0
[36] = test system: A549
[37] = test system: MDA-N
[38] = test system: SK-MEL-28
[39] = test system: LOX IMVI
[40] = test system: SW-620
[41] = test system: SF-268
[42] = test system: SK-MEL-2
[43] = test system: CCRF-CEM
[44] = test system: HT-29
[45] = test system: K562
[46] = test system: SF-295
[47] = test system: NCI-H522
[48] = test system: Malme-3M
[49] = test system: TK-10
[50] = test system: EKVX
[51] = test system: UO-31
[52] = test system: OVCAR-4
[53] = test system: RXF 393
[54] = test system: HCT-15

For Cc1cc(C)c(C(=O)c2nnc3ccccc3c2N)c(C)c1, which GI50 [1] is on record?
The GI50 was 24.3 µM (inactive).

What about the GI50 [2] of the same compound?
Its GI50 is 35.8 µM (inactive).

And the GI50 [3]?
The GI50 was 15.2 µM (inactive).

And the GI50 [4]?
The GI50 was 13.9 µM (inactive).

What about the GI50 [5] of the same compound?
Its GI50 is 15.3 µM (inactive).

What about the GI50 [6] of the same compound?
The GI50 was 16.3 µM (inactive).

And the GI50 [7]?
Its GI50 is 37.9 µM (inactive).

What about the GI50 [8] of the same compound?
The GI50 was 17.4 µM (inactive).

And the GI50 [9]?
The GI50 was 15.8 µM (inactive).

What about the GI50 [10] of the same compound?
The GI50 was 15.3 µM (inactive).

And the GI50 [11]?
The GI50 was 10.3 µM (inactive).

What about the GI50 [12] of the same compound?
The GI50 was 15.8 µM (inactive).

What about the GI50 [13] of the same compound?
The GI50 was 16.6 µM (inactive).

What about the GI50 [14] of the same compound?
Its GI50 is 13.5 µM (inactive).

What about the GI50 [15] of the same compound?
The GI50 was 23.1 µM (inactive).

And the GI50 [16]?
The GI50 was 16.4 µM (inactive).

And the GI50 [17]?
The GI50 was 32.4 µM (inactive).

What about the GI50 [18] of the same compound?
The GI50 was 27 µM (inactive).

And the GI50 [19]?
Its GI50 is 16.9 µM (inactive).

What about the GI50 [20] of the same compound?
The GI50 was 26.9 µM (inactive).

What about the GI50 [21] of the same compound?
Its GI50 is 22.1 µM (inactive).

What about the GI50 [22] of the same compound?
The GI50 was 19.3 µM (inactive).

What about the GI50 [23] of the same compound?
The GI50 was 24 µM (inactive).

And the GI50 [24]?
Its GI50 is 45.4 µM (inactive).

What about the GI50 [25] of the same compound?
The GI50 was 28.7 µM (inactive).

And the GI50 [26]?
The GI50 was 16.4 µM (inactive).

And the GI50 [27]?
Its GI50 is 3.65 µM (inactive).

What about the GI50 [28] of the same compound?
The GI50 was 13.6 µM (inactive).

And the GI50 [29]?
Its GI50 is 24.9 µM (inactive).

And the GI50 [30]?
Its GI50 is 24 µM (inactive).

What about the GI50 [31] of the same compound?
The GI50 was 16.5 µM (inactive).

What about the GI50 [32] of the same compound?
Its GI50 is 63.1 µM (inactive).

What about the GI50 [33] of the same compound?
The GI50 was 7.55 µM (inactive).

And the GI50 [34]?
Its GI50 is 27.5 µM (inactive).

And the GI50 [35]?
The GI50 was 12.3 µM (inactive).

What about the GI50 [36] of the same compound?
The GI50 was 23.3 µM (inactive).

What about the GI50 [37] of the same compound?
The GI50 was 16.7 µM (inactive).

And the GI50 [38]?
The GI50 was 17 µM (inactive).

What about the GI50 [39] of the same compound?
Its GI50 is 16 µM (inactive).

What about the GI50 [40] of the same compound?
Its GI50 is 26.7 µM (inactive).

What about the GI50 [41] of the same compound?
The GI50 was 48.3 µM (inactive).

What about the GI50 [42] of the same compound?
Its GI50 is 14.9 µM (inactive).

And the GI50 [43]?
The GI50 was 31 µM (inactive).

What about the GI50 [44] of the same compound?
Its GI50 is 25.5 µM (inactive).

With O=S(=O)(O)c1cc(O)c(/N=N/c2ccc3ccccc3c2O)c2ccccc12 [ERIOCHROME BLUE BLACK B] as the compound, how does the GI50 [45] read?
Its GI50 is 18 µM (inactive).

And the GI50 [1]?
Its GI50 is 15.6 µM (inactive).

And the GI50 [2]?
The GI50 was 37.8 µM (inactive).

What about the GI50 [3] of the same compound?
Its GI50 is 28.7 µM (inactive).

What about the GI50 [46] of the same compound?
Its GI50 is 27.4 µM (inactive).

And the GI50 [4]?
The GI50 was 13.3 µM (inactive).

And the GI50 [47]?
Its GI50 is 15.1 µM (inactive).

What about the GI50 [5] of the same compound?
The GI50 was 23.4 µM (inactive).

And the GI50 [48]?
Its GI50 is 75.3 nM (active).

And the GI50 [49]?
The GI50 was 66.2 µM (inactive).

What about the GI50 [6] of the same compound?
The GI50 was 4.71 µM (inactive).

And the GI50 [7]?
The GI50 was 25.8 µM (inactive).

What about the GI50 [50] of the same compound?
Its GI50 is 12.9 µM (inactive).

And the GI50 [8]?
Its GI50 is 34.3 µM (inactive).

What about the GI50 [9] of the same compound?
The GI50 was 33.3 µM (inactive).

And the GI50 [10]?
Its GI50 is 3.59 µM (inactive).

What about the GI50 [11] of the same compound?
Its GI50 is 33.4 µM (inactive).

And the GI50 [12]?
The GI50 was 1.97 µM (inactive).

And the GI50 [13]?
Its GI50 is 15.8 µM (inactive).

And the GI50 [14]?
The GI50 was 11.9 µM (inactive).

And the GI50 [15]?
The GI50 was 24.6 µM (inactive).

What about the GI50 [16] of the same compound?
The GI50 was 14.8 µM (inactive).

What about the GI50 [17] of the same compound?
Its GI50 is 31.6 µM (inactive).

What about the GI50 [51] of the same compound?
Its GI50 is 17.1 µM (inactive).

What about the GI50 [18] of the same compound?
The GI50 was 14.3 µM (inactive).

And the GI50 [19]?
Its GI50 is 16.4 µM (inactive).

What about the GI50 [52] of the same compound?
Its GI50 is 78.3 µM (inactive).

What about the GI50 [21] of the same compound?
The GI50 was 15.2 µM (inactive).

What about the GI50 [22] of the same compound?
The GI50 was 27 µM (inactive).

What about the GI50 [23] of the same compound?
Its GI50 is 40.8 µM (inactive).

What about the GI50 [24] of the same compound?
The GI50 was 18 µM (inactive).

And the GI50 [25]?
The GI50 was 32.4 µM (inactive).

What about the GI50 [26] of the same compound?
Its GI50 is 30.4 µM (inactive).

And the GI50 [27]?
The GI50 was 28.5 µM (inactive).

What about the GI50 [28] of the same compound?
Its GI50 is 30.3 µM (inactive).

And the GI50 [29]?
Its GI50 is 41.7 µM (inactive).

What about the GI50 [30] of the same compound?
The GI50 was 7.41 µM (inactive).

And the GI50 [31]?
The GI50 was 16.1 µM (inactive).

And the GI50 [32]?
Its GI50 is 37.3 µM (inactive).

And the GI50 [33]?
The GI50 was 6.17 µM (inactive).

And the GI50 [34]?
Its GI50 is 16.7 µM (inactive).

What about the GI50 [53] of the same compound?
Its GI50 is 80.9 µM (inactive).

And the GI50 [35]?
Its GI50 is 31.4 µM (inactive).

And the GI50 [54]?
Its GI50 is 23.9 µM.

And the GI50 [36]?
The GI50 was 21.1 µM (inactive).

What about the GI50 [37] of the same compound?
Its GI50 is 5.06 µM (inactive).

What about the GI50 [38] of the same compound?
Its GI50 is 45.6 µM (inactive).

And the GI50 [40]?
Its GI50 is 33.9 µM (inactive).

What about the GI50 [41] of the same compound?
Its GI50 is 10.5 µM (inactive).

What about the GI50 [42] of the same compound?
The GI50 was 26.9 µM (inactive).

And the GI50 [43]?
Its GI50 is 21.9 µM (inactive).

And the GI50 [44]?
The GI50 was 24.7 µM (inactive).

— ChEMBL document CHEMBL1201862, “PubChem BioAssay data set” (2004)
